Data on 18 compounds can be found in US12226424B2, “Target protein degradation compounds, their anti-tumor use, their intermediates and use of intermediates” (ShanghaiTech University, priority 2018, dated 2025).

Each structure is given as a SMILES string.

In one assay the test system is SR cells. Briefly: Half inhibitory concentration (IC50) on ALK-positive SR cell proliferation (CCK-8). In kind it is cell-based. To be noted: Homo sapiens; SR cells, 72 h drug treatment, CCK-8; read-out: IC50 (nM)/ SR cell line. Here is the method:
ALK-positive SR cells (human large cell immunoblastic lymphoma) were purchased from the American Type Culture Collection (ATCC); H3122 cells (human non-small cell lung cancer) were from the Shanghai University of Science and Technology Lin Haifan's research group.
The cells used in this present disclosure were cultured in a 37° C. incubator containing 5% CO2.
SR cells were seeded in 100 μL RPMI1640 complete medium at a density of 10,000 cells/well. 100 μL of the inoculated cells were treated with 0.5 μL diluted PROTAD compound of the present disclosure to be tested at 10 successively decreasing concentrations (starting at the highest concentration of 10 μM; 5-fold serial dilutions) After the cells were treated with the drug for 72 h, cell viability was determined according to the CCK-8 reagent operating instructions. The negative control was DMSO, and the positive control was a commercial inhibitor. After CCK-8 treatment for 2 h, the value of O.D.450 was measured using a microplate reader.
On to `CCc1cc2c(cc1N1CCC(N3CCN(C(=O)COCCSc4cccc5c4CN(C4CCC(=O)NC4=O)C5=O)CC3)CC1)C(C)(C)c1[nH]c3cc(C#N)ccc3c1C2=O` (stereo not drawn) [SIAIS249066, 8-(4-(4-(2-(2-((2-(2,6-dioxopiperidin-3-yl)-1-oxoisoindolin-4-yl)thio)ethoxy)acetyl)piperazin-1-yl)piperidin-1-yl)-9-ethyl-6,6-dimethyl-11-oxo-6,11-dihydro-5H-benzo[b]carbazole-3-carbonitrile], for which the IC50 was determined as 0.17 ± 0.14 nM.
On the same count and under the same terms, next, `CCc1cc2c(cc1N1CCC(N3CCN(C(=O)COCCOCCSc4cccc5c4CN(C4CCC(=O)NC4=O)C5=O)CC3)CC1)C(C)(C)c1[nH]c3cc(C#N)ccc3c1C2=O` (stereo not drawn) [SIAIS249067, 8-(4-(4-(2-(2-(2-((2-(2,6-dioxopiperidin-3-yl)-1-oxoisoindolin-4-yl)thio)ethoxy)ethoxy)acetyl)piperazin-1-yl)piperidin-1-yl)-9-ethyl-6,6-dimethyl-11-oxo-6,11-dihydro-5H-benzo[b]carbazole-3-carbonitrile]: 0.38 ± 0.18 nM.
On the same count and under the same terms, then `CCc1cc2c(cc1N1CCC(N3CCN(C(=O)COCCOCCOCCSc4cccc5c4CN(C4CCC(=O)NC4=O)C5=O)CC3)CC1)C(C)(C)c1[nH]c3cc(C#N)ccc3c1C2=O` (stereo not drawn) [SIAIS249068, 8-(4-(4-(2-(2-(2-(2-((2-(2,6-dioxopiperidin-3-yl)-1-oxoisoindolin-4-yl)thio)ethoxy)ethoxy)ethoxy)acetyl)piperazin-1-yl)piperidin-1-yl)-9-ethyl-6,6-dimethyl-11-oxo-6,11-dihydro-5H-benzo[b]carbazole-3-carbonitrile], with 0.33 ± 0.06 nM; and `CCc1cc2c(cc1N1CCC(N3CCN(C(=O)COCCOCCOCCOCCSc4cccc5c4CN(C4CCC(=O)NC4=O)C5=O)CC3)CC1)C(C)(C)c1[nH]c3cc(C#N)ccc3c1C2=O` (stereo not drawn) [SIAIS249069, 8-(4-(4-(14-((2-(2,6-dioxopiperidin-3-yl)-1-oxoisoindolin-4-yl)thio)-3,6,9,12-tetraoxatetradecanoyl)piperazin-1-yl)piperidin-1-yl)-9-ethyl-6,6-dimethyl-11-oxo-6,11-dihydro-5H-benzo[b]carbazole-3-carbonitrile], with 0.81 ± 0.28 nM.
As to `CCc1cc2c(cc1N1CCC(N3CCN(C(=O)COCCOCCOCCOCCOCCSc4cccc5c4CN(C4CCC(=O)NC4=O)C5=O)CC3)CC1)C(C)(C)c1[nH]c3cc(C#N)ccc3c1C2=O` (stereo not drawn) [SIAIS249070, 8-(4-(4-(17-((2-(2,6-dioxopiperidin-3-yl)-1-oxoisoindolin-4-yl)thio)-3,6,9,12,15-pentaoxaheptadecanoyl)piperazin-1-yl)piperidin-1-yl)-9-ethyl-6,6-dimethyl-11-oxo-6,11-dihydro-5H-benzo[b]carbazole-3-carbonitrile], the IC50 turned out to be 0.43 ± 0.11 nM.
The same measure, in the same setting: next, `CCc1cc2c(cc1N1CCC(N3CCN(C(=O)CSc4cccc5c4CN(C4CCC(=O)NC4=O)C5=O)CC3)CC1)C(C)(C)c1[nH]c3cc(C#N)ccc3c1C2=O` (stereo not drawn) [SIAIS262096, 8-(4-(4-(2-((2-(2,6-dioxopiperidin-3-yl)-1-oxoisoindolin-4-yl)thio)acetyl)piperazin-1-yl)piperidin-1-yl)-9-ethyl-6,6-dimethyl-11-oxo-6,11-dihydro-5H-benzo[b]carbazole-3-carbonitrile]: 0.22 ± 0.11 nM; `CCc1cc2c(cc1N1CCC(N3CCN(C(=O)CCSc4cccc5c4CN(C4CCC(=O)NC4=O)C5=O)CC3)CC1)C(C)(C)c1[nH]c3cc(C#N)ccc3c1C2=O` (stereo not drawn) [SIAIS262097, 8-(4-(4-(3-((2-(2,6-dioxopiperidin-3-yl)-1-oxoisoindolin-4-yl)thio)propanoyl)piperazin-1-yl)piperidin-1-yl)-9-ethyl-6,6-dimethyl-11-oxo-6,11-dihydro-5H-benzo[b]carbazole-3-carbonitrile]: 3.89 ± 0.78 nM.
`CCc1cc2c(cc1N1CCC(N3CCN(C(=O)CCCSc4cccc5c4CN(C4CCC(=O)NC4=O)C5=O)CC3)CC1)C(C)(C)c1[nH]c3cc(C#N)ccc3c1C2=O` (stereo not drawn) [SIAIS262098, 8-(4-(4-(4-((2-(2,6-dioxopiperidin-3-yl)-1-oxoisoindolin-4-yl)thio)butanoyl)piperazin-1-yl)piperidin-1-yl)-9-ethyl-6,6-dimethyl-11-oxo-6,11-dihydro-5H-benzo[b]carbazole-3-carbonitrile]: the IC50 is 0.29 ± 0.21 nM.
The same measure, in the same setting: next, `CCc1cc2c(cc1N1CCC(N3CCN(C(=O)CCCCSc4cccc5c4CN(C4CCC(=O)NC4=O)C5=O)CC3)CC1)C(C)(C)c1[nH]c3cc(C#N)ccc3c1C2=O` (stereo not drawn) [SIAIS262099, 8-(4-(4-(5-((2-(2,6-dioxopiperidin-3-yl)-1-oxoisoindolin-4-yl)thio)pentanoyl)piperazin-1-yl)piperidin-1-yl)-9-ethyl-6,6-dimethyl-11-oxo-6,11-dihydro-5H-benzo[b]carbazole-3-carbonitrile]: 0.93 ± 1.11 nM; `CCc1cc2c(cc1N1CCC(N3CCN(C(=O)CCCCCSc4cccc5c4CN(C4CCC(=O)NC4=O)C5=O)CC3)CC1)C(C)(C)c1[nH]c3cc(C#N)ccc3c1C2=O` (stereo not drawn) [SIAIS262100, 8-(4-(4-(6-((2-(2,6-dioxopiperidin-3-yl)-1-oxoisoindolin-4-yl)thio)hexanoyl)piperazin-1-yl)piperidin-1-yl)-9-ethyl-6,6-dimethyl-11-oxo-6,11-dihydro-5H-benzo[b]carbazole-3-carbonitrile]: 0.52 ± 0.48 nM; `CCc1cc2c(cc1N1CCC(N3CCN(C(=O)CCCCCCSc4cccc5c4CN(C4CCC(=O)NC4=O)C5=O)CC3)CC1)C(C)(C)c1[nH]c3cc(C#N)ccc3c1C2=O` (stereo not drawn) [SIAIS262101, 8-(4-(4-(7-((2-(2,6-dioxopiperidin-3-yl)-1-oxoisoindolin-4-yl)thio)heptanoyl)piperazin-1-yl)piperidin-1-yl)-9-ethyl-6,6-dimethyl-11-oxo-6,11-dihydro-5H-benzo[b]carbazole-3-carbonitrile]: 2.94 ± 3.7 nM.
On the same count and under the same terms, next, `CCc1cc2c(cc1N1CCC(N3CCN(CCSc4cccc5c4C(=O)N(C4CCC(=O)NC4=O)C5=O)CC3)CC1)C(C)(C)c1[nH]c3cc(C#N)ccc3c1C2=O` (stereo not drawn) [SIAIS262158, 8-(4-(4-(2-((2-(2,6-dioxopiperidin-3-yl)-1,3-dioxoisoindolin-4-yl)thio)ethyl)piperazin-1-yl)piperidin-1-yl)-9-ethyl-6,6-dimethyl-11-oxo-6,11-dihydro-5H-benzo[b]carbazole-3-carbonitrile]: 2.9 nM; `CCc1cc2c(cc1N1CCC(N3CCN(CCCCCCSc4cccc5c4CN(C4CCC(=O)NC4=O)C5=O)CC3)CC1)C(C)(C)c1[nH]c3cc(C#N)ccc3c1C2=O` (stereo not drawn) [SIAIS262159, 8-(4-(4-(6-((2-(2,6-dioxopiperidin-3-yl)-1-oxoisoindolin-4-yl)thio)hexyl)piperazin-1-yl)piperidin-1-yl)-9-ethyl-6,6-dimethyl-11-oxo-6,11-dihydro-5H-benzo[b]carbazole-3-carbonitrile]: 1 nM.
The same measure, in the same setting: next, `CCc1cc2c(cc1N1CCC(NC(=O)CSc3cccc4c3CN(C3CCC(=O)NC3=O)C4=O)CC1)C(C)(C)c1[nH]c3cc(C#N)ccc3c1C2=O` (stereo not drawn) [SIAIS262161, N-(1-(3-cyano-9-ethyl-6,6-dimethyl-11-oxo-6,11-dihydro-5H-benzo[b]carbazol-8-yl)piperidin-4-yl)-2-((2-(2,6-dioxopiperidin-3-yl)-1-oxoisoindolin-4-yl)thio)acetamide]: 1.86 nM; `CCc1cc2c(cc1N1CCC(NC(=O)CCCCCSc3cccc4c3CN(C3CCC(=O)NC3=O)C4=O)CC1)C(C)(C)c1[nH]c3cc(C#N)ccc3c1C2=O` (stereo not drawn) [SIAIS262162, N-(1-(3-cyano-9-ethyl-6,6-dimethyl-11-oxo-6,11-dihydro-5H-benzo[b]carbazol-8-yl)piperidin-4-yl)-6-((2-(2,6-dioxopiperidin-3-yl)-1-oxoisoindolin-4-yl)thio)hexanamide]: 11.3 nM; `CCc1cc2c(cc1N1CCC(NC(=O)COCCSc3cccc4c3CN(C3CCC(=O)NC3=O)C4=O)CC1)C(C)(C)c1[nH]c3cc(C#N)ccc3c1C2=O` (stereo not drawn) [SIAIS262163, N-(1-(3-cyano-9-ethyl-6,6-dimethyl-11-oxo-6,11-dihydro-5H-benzo[b]carbazol-8-yl)piperidin-4-yl)-2-(2-((2-(2,6-dioxopiperidin-3-yl)-1-oxoisoindolin-4-yl)thio)ethoxy)acetamide]: 1.6 nM.

The test system of another assay is CDK4/6 protein. Briefly: Western-blot determination of CDK4/6 protein degradation (DC50) in T-47D cells. The format is cell-based, human. To be noted: 24 h drug treatment, read-out: DC50(nM)/T-47D cell line.
In the case of `CC(=O)c1c(C)c2cnc(Nc3ccc(N4CCN(C(=O)CS(=O)(=O)c5cccc6c5C(=O)N(C5CCC(=O)NC5=O)C6=O)CC4)cn3)nc2n(C2CCCC2)c1=O` (stereo not drawn) [SIAIS151056, 4-((2-(4-(6-((6-acetyl-8-cyclopentyl-5-methyl-7-oxo-7,8-dihydropyrido[2,3-d]pyrimidin-2-yl)amino)pyridin-3-yl)piperazin-1-yl)-2-oxoethyl)sulfonyl)-2-(2,6-dioxopiperidin-3-yl)isoindoline-1,3-dione], the DC50 fell in the range of 100 to 500 nM.
Turning to `CC(=O)c1c(C)c2cnc(Nc3ccc(N4CCN(C(=O)C[S+]([O-])c5cccc6c5C(=O)N(C5CCC(=O)NC5=O)C6=O)CC4)cn3)nc2n(C2CCCC2)c1=O` (stereo not drawn) [SIAIS151057, 4-((2-(4-(6-((6-acetyl-8-cyclopentyl-5-methyl-7-oxo-7,8-dihydropyrido[2,3-d]pyrimidin-2-yl)amino)pyridin-3-yl)piperazin-1-yl)-2-oxoethyl)sulfinyl)-2-(2,6-dioxopiperidin-3-yl)isoindoline-1,3-dione], the DC50 is 100 to 500 nM.
